Source: the supplement of paper PMC10307832

Tests used:
Experiment in all cases: relative viability (nuclei count vs DMSO), 5 days (fraction); higher = more cells survive
CAL-12T = tested on: CAL-12T
In short: (§1)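 Relative viability is defined as nuclei in treated wells over nuclei in vehicle wells. Duplicate plates were run and medians reported. Lung cancer cell lines in 1536-well plates were dosed by pin tool one day after seeding, with one drug or with a fixed anchor-drug dose plus five library-drug doses (not always all listed) in √10 steps, and nuclei were counted after 5 days.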

NCI-H1666 = tested on: NCI-H1666
In short: as §1

NCI-H1975 = tested on: NCI-H1975
In short: as §1

NCI-H1755 = tested on: NCI-H1755
In short: as §1

UMC-11 = tested on: UMC-11
In short: as §1

ChaGo-K-1 = tested on: ChaGo-K-1
In short: as §1

HCC-15 = tested on: HCC-15
In short: as §1

COR-L 105 = tested on: COR-L 105
In short: as §1

NCI-H2126 = tested on: NCI-H2126
In short: as §1

NCI-H3122 = tested on: NCI-H3122
In short: as §1

NCI-H322M = tested on: NCI-H322M
In short: as §1

NCI-H441 = tested on: NCI-H441
In short: as §1

HCC-78 = tested on: HCC-78
In short: as §1

NCI-H2023 = tested on: NCI-H2023
In short: as §1

EPLC-272H = tested on: EPLC-272H
In short: as §1

HOP-62 = tested on: HOP-62
In short: as §1

LXF-289 = tested on: LXF-289
In short: as §1

NCI-H1915 = tested on: NCI-H1915
In short: as §1

EMC-BAC-2 = tested on: EMC-BAC-2
In short: as §1

NCI-H2085 = tested on: NCI-H2085
In short: as §1

Cc1sc2c(c1C)C(c1ccc(Cl)cc1)=N[C@@H](CC(=O)OC(C)(C)C)c1nnc(C)n1-2 [JQ1] + CC1(C)CCC(c2ccc(Cl)cc2)=C(CN2CCN(c3ccc(C(=O)NS(=O)(=O)c4ccc(N[C@H](CCN5CCOCC5)CSc5ccccc5)c(S(=O)(=O)C(F)(F)F)c4)cc3)CC2)C1 [Navitoclax] (partner 0.5 µM)
relative viability (CAL-12T; first compound 0.04 µM): 1.12 | relative viability (CAL-12T; first compound 0.1265 µM): 1.29 | relative viability (CAL-12T; first compound 0.4 µM): 0.701 | relative viability (CAL-12T; first compound 1.265 µM): 0.295 | relative viability (CAL-12T; first compound 4 µM): 0.408 | relative viability (NCI-H1666; first compound 0.04 µM): 0.926 | relative viability (NCI-H1666; first compound 0.1265 µM): 0.899 | relative viability (NCI-H1666; first compound 0.4 µM): 0.787 | relative viability (NCI-H1666; first compound 1.265 µM): 0.438 | relative viability (NCI-H1666; first compound 4 µM): 0.513 | relative viability (NCI-H1975; first compound 0.04 µM): 1.1 | relative viability (NCI-H1975; first compound 0.1265 µM): 0.715 | relative viability (NCI-H1975; first compound 0.4 µM): 0.821 | relative viability (NCI-H1975; first compound 1.265 µM): 0.336 | relative viability (NCI-H1975; first compound 4 µM): 0.266 | relative viability (NCI-H1755; first compound 0.04 µM): 1.01 | relative viability (NCI-H1755; first compound 0.1265 µM): 0.991 | relative viability (NCI-H1755; first compound 0.4 µM): 0.922 | relative viability (NCI-H1755; first compound 1.265 µM): 0.59 | relative viability (NCI-H1755; first compound 4 µM): 0.455 | relative viability (UMC-11; first compound 0.04 µM): 0.266 | relative viability (UMC-11; first compound 0.1265 µM): 0.292 | relative viability (UMC-11; first compound 0.4 µM): 0.205 | relative viability (UMC-11; first compound 1.265 µM): 0.134 | relative viability (UMC-11; first compound 4 µM): 0.142 | relative viability (ChaGo-K-1; first compound 0.04 µM): 1.08 | relative viability (ChaGo-K-1; first compound 0.4 µM): 0.868 | relative viability (ChaGo-K-1; first compound 1.265 µM): 0.405 | relative viability (ChaGo-K-1; first compound 4 µM): 0.481 | relative viability (HCC-15; first compound 0.04 µM): 0.692 | relative viability (HCC-15; first compound 0.4 µM): 0.532 | relative viability (HCC-15; first compound 1.265 µM): 0.331 | relative viability (HCC-15; first compound 4 µM): 0.299 | relative viability (COR-L 105; first compound 0.04 µM): 0.707 | relative viability (COR-L 105; first compound 0.1265 µM): 0.567 | relative viability (COR-L 105; first compound 0.4 µM): 0.462 | relative viability (COR-L 105; first compound 1.265 µM): 0.282 | relative viability (COR-L 105; first compound 4 µM): 0.326 | relative viability (NCI-H2126; first compound 0.04 µM): 0.892 | relative viability (NCI-H2126; first compound 0.1265 µM): 0.733 | relative viability (NCI-H2126; first compound 0.4 µM): 0.843 | relative viability (NCI-H2126; first compound 1.265 µM): 0.578 | relative viability (NCI-H2126; first compound 4 µM): 0.555 | relative viability (NCI-H3122; first compound 0.04 µM): 1.01 | relative viability (NCI-H3122; first compound 0.1265 µM): 1.01 | relative viability (NCI-H3122; first compound 0.4 µM): 1.07 | relative viability (NCI-H3122; first compound 1.265 µM): 0.552 | relative viability (NCI-H3122; first compound 4 µM): 0.511 | relative viability (NCI-H322M; first compound 0.04 µM): 1.09 | relative viability (NCI-H322M; first compound 0.1265 µM): 1.11 | relative viability (NCI-H322M; first compound 0.4 µM): 1.1 | relative viability (NCI-H322M; first compound 1.265 µM): 0.692 | relative viability (NCI-H322M; first compound 4 µM): 0.608 | relative viability (NCI-H441; first compound 0.04 µM): 0.834 | relative viability (NCI-H441; first compound 0.1265 µM): 0.684 | relative viability (NCI-H441; first compound 0.4 µM): 0.54 | relative viability (NCI-H441; first compound 1.265 µM): 0.528 | relative viability (NCI-H441; first compound 4 µM): 0.408 | relative viability (HCC-78; first compound 0.04 µM): 0.799 | relative viability (HCC-78; first compound 0.1265 µM): 0.761 | relative viability (HCC-78; first compound 0.4 µM): 0.465 | relative viability (HCC-78; first compound 1.265 µM): 0.285 | relative viability (HCC-78; first compound 4 µM): 0.242 | relative viability (NCI-H2023; first compound 0.04 µM): 0.98 | relative viability (NCI-H2023; first compound 0.1265 µM): 0.915 | relative viability (NCI-H2023; first compound 0.4 µM): 0.846 | relative viability (NCI-H2023; first compound 1.265 µM): 0.334 | relative viability (NCI-H2023; first compound 4 µM): 0.369 | relative viability (EPLC-272H; first compound 0.04 µM): 1.14 | relative viability (EPLC-272H; first compound 0.1265 µM): 0.958 | relative viability (EPLC-272H; first compound 0.4 µM): 1.06 | relative viability (EPLC-272H; first compound 1.265 µM): 0.462 | relative viability (EPLC-272H; first compound 4 µM): 0.321 | relative viability (HOP-62; first compound 0.04 µM): 0.926 | relative viability (HOP-62; first compound 0.1265 µM): 0.841 | relative viability (HOP-62; first compound 0.4 µM): 0.516 | relative viability (HOP-62; first compound 1.265 µM): 0.133 | relative viability (HOP-62; first compound 4 µM): 0.0774 | relative viability (LXF-289; first compound 0.04 µM): 0.964 | relative viability (LXF-289; first compound 0.1265 µM): 0.975 | relative viability (LXF-289; first compound 0.4 µM): 0.863 | relative viability (LXF-289; first compound 1.265 µM): 0.731 | relative viability (LXF-289; first compound 4 µM): 0.29 | relative viability (NCI-H1915; first compound 0.04 µM): 0.781 | relative viability (NCI-H1915; first compound 0.1265 µM): 0.567 | relative viability (NCI-H1915; first compound 0.4 µM): 0.698 | relative viability (NCI-H1915; first compound 1.265 µM): 0.419 | relative viability (NCI-H1915; first compound 4 µM): 0.198 | relative viability (EMC-BAC-2; first compound 0.04 µM): 1.18 | relative viability (EMC-BAC-2; first compound 0.1265 µM): 1.18 | relative viability (EMC-BAC-2; first compound 0.4 µM): 1.01 | relative viability (EMC-BAC-2; first compound 1.265 µM): 0.61 | relative viability (EMC-BAC-2; first compound 4 µM): 0.658 | relative viability (NCI-H2085; first compound 0.04 µM): 1.08 | relative viability (NCI-H2085; first compound 0.1265 µM): 1.1 | relative viability (NCI-H2085; first compound 0.4 µM): 0.902 | relative viability (NCI-H2085; first compound 1.265 µM): 0.561 | relative viability (NCI-H2085; first compound 4 µM): 0.643
